According to ChEMBL document CHEMBL4513160, “CO-ADD screening of MMV (CH) - Small Polar Library”:
Values after ≈ are worked out from the molar mass of the structure shown.

Legend:
Acinetobacter baumannii = experiment: microbe, parasite or virus in culture; conditions: ATCC 19606, 18 h, ASSAY_TEST Inhibition of Bacterial Growth, detection method Absorption (OD600), MEDIA CAMHB, plate type 384well, NBS, CORNING #3640
Description: Antibacterial activity against Acinetobacter baumannii ATCC 19606 (CO-ADD:GN_034); MIC in CAMBH media using NBS plates, by OD600

Pseudomonas aeruginosa [1] = experiment: Antibacterial activity against Pseudomonas aeruginosa PAO397 [PAO1 d(mexAB-oprM) d(mexCD-oprJ) d(mexEF-oprN) d(mexJKL) d(mexXY) d(opmH)] (CO-ADD:GN_211); MIC in CAMBH media using NBS plates, by OD(600); assay type: functional; conditions: ASSAY_TEST Inhibition of Bacterial Growth, detection method Absorption (OD600), MEDIA CAMHB, plate type 384well, CORNING #3640, time 18 hr
Pseudomonas aeruginosa [2] = experiment: microbe, parasite or virus in culture; conditions: ATCC 27853, 18 h, ASSAY_TEST Inhibition of Bacterial Growth, detection method Absorption (OD600), MEDIA CAMHB, plate type 384well, NBS, CORNING #3640
Description: Antibacterial activity against Pseudomonas aeruginosa ATCC 27853 (CO-ADD:GN_042); MIC in CAMBH media using NBS plates, by OD(600)

Row | SMILES | MIC (Acinetobacter baumannii) | MIC (Pseudomonas aeruginosa [1]) | MIC (Pseudomonas aeruginosa [2])
1 | Cc1cccc(OCC(O)Cn2ccnc2C)c1 (stereo not given) | > 300 µM | > 300 µM | > 300 µM
2 | O=C(c1cnsn1)N1CCN(c2ccccn2)CC1 | > 300 µM | > 300 µM | > 300 µM
3 | Cc1c(C(=O)NC2=NCCS2)oc2ccccc12 | > 300 µM | > 300 µM | > 300 µM
4 | CCc1c(C)nc2sc(C(N)=O)c(N)c2c1C | > 300 µM | > 300 µM | > 300 µM
5 | Nc1ccnc(-c2ccccc2)c1 | > 300 µM | > 300 µM | > 300 µM
6 | NCC(O)c1ccc(-c2ccccc2)cc1 (stereo not given) | > 300 µM | > 300 µM | > 300 µM
7 | NCc1cccc(-c2ccccn2)n1 | > 300 µM | 200 µM (≈ 37 µg/mL) | 300 µM (≈ 55.6 µg/mL)
8 | COc1ccc(C2NC(=O)c3cccnc3N2)cc1F (stereo not given) | > 300 µM | > 300 µM | > 300 µM
9 | O=C(c1c(O)cccc1F)N1CCc2cnccc21 | > 300 µM | > 300 µM | > 300 µM
10 | COc1ccc(OC)c(NC(=O)c2ccccn2)c1 | > 300 µM | > 300 µM | > 300 µM
11 | Nc1cnccc1N1CCCCC1 | > 300 µM | > 300 µM | > 300 µM
12 | Cc1cc(NC(C)CO)nc2ccccc12 (stereo not given) | > 300 µM | > 300 µM | > 300 µM
13 | CCCOc1ccc(CN)cc1 | > 300 µM | > 300 µM | > 300 µM
14 | CC1COC2(CCN(C(=O)c3ccc(Cl)s3)CC2)O1 (stereo not given) | > 300 µM | > 300 µM | > 300 µM
15 | NC(=O)CSc1nc(-c2ccc(Br)cc2)c[nH]1 | > 300 µM | 300 µM (≈ 93.7 µg/mL) | > 300 µM
16 | FC(F)Oc1cccc(N2CCNCC2)c1 | > 300 µM | > 300 µM | > 300 µM
17 | Cc1cccc(C(=O)Nc2ncc(C)s2)n1 | > 300 µM | > 300 µM | > 300 µM
18 | NCc1cnn(-c2ccc(Cl)cc2)c1 | > 300 µM | > 300 µM | > 300 µM
19 | OCCNCCNCc1ccc(-c2cccc(Cl)c2)o1 | > 300 µM | > 300 µM | > 300 µM
20 | Cc1ccc(C2(O)CCNC2)cc1 (stereo not given) | > 300 µM | > 300 µM | 300 µM (≈ 53.2 µg/mL)
21 | CN(C)c1ccc(-c2[nH][nH]c(=O)c2CCN)cc1 | > 300 µM | > 300 µM | > 300 µM
22 | CCc1cccc2c1OCCC2N (stereo not given) | > 300 µM | > 300 µM | > 300 µM

Row | SMILES | MIC (Acinetobacter baumannii) | MIC (Pseudomonas aeruginosa [1]) | MIC (Pseudomonas aeruginosa [2])
23 | CC[C@H](CO)Nc1ccnc2cc(Br)cnc12 | > 300 µM | > 300 µM | > 300 µM
24 | O=C(NCCO)Nc1nc2ccccc2s1 | > 300 µM | > 300 µM | > 300 µM
25 | Cc1ccc2c(N)noc2n1 | > 300 µM | 135 µM (≈ 20.1 µg/mL) | 135 µM (≈ 20.1 µg/mL)
26 | CC(Sc1n[nH]c(-c2ccccn2)n1)C(=O)N(C)C (stereo not given) | > 300 µM | > 300 µM | > 300 µM
27 | OCCNCCNCc1ccc(-c2ccccc2Cl)o1 | > 300 µM | > 300 µM | > 300 µM
28 | NCCNS(=O)(=O)c1ccc(-c2ccccc2)cc1 | > 300 µM | > 300 µM | > 300 µM
29 | c1ccc(N2CCN(c3ncccn3)CC2)nc1 | > 300 µM | > 300 µM | > 300 µM
30 | Cn1ccc(C(=O)Nc2ccc(Br)cn2)n1 | > 300 µM | > 300 µM | > 300 µM
31 | O=C(CSCCO)Nc1ncc(-c2ccccc2)s1 | > 300 µM | 200 µM (≈ 58.9 µg/mL) | > 300 µM
32 | Cn1c(CN)nc2cc(Cl)ccc21 | > 300 µM | > 300 µM | > 300 µM
33 | CCn1cc(C(=O)Nc2ccc(Br)cn2)cn1 | > 300 µM | > 300 µM | > 300 µM
34 | CS(=O)(=O)N1CCSc2ccc(Cl)cc21 | > 300 µM | > 300 µM | > 300 µM
35 | CN1CCCC1CCSc1nc(N)c(C#N)cc1C#N (stereo not given) | > 300 µM | > 300 µM | > 300 µM
36 | NCC1CCN(CCc2ccccc2)C1 (stereo not given) | > 300 µM | > 300 µM | > 300 µM
37 | COc1c(C(=O)N2CCOCC2)sc2ccc(F)cc12 | > 300 µM | > 300 µM | > 300 µM
38 | CC(CO)NC(=O)Nc1nc(-c2ccccc2)ns1 (stereo not given) | > 300 µM | 200 µM (≈ 55.7 µg/mL) | > 300 µM
39 | Cc1cc(C(=O)Nc2ccc3c(c2)CCN3)n(C)n1 | > 300 µM | > 300 µM | > 300 µM
40 | CNC(=O)CCCNC(=O)Nc1nc2ccccc2s1 | > 300 µM | > 300 µM | > 300 µM
41 | Cc1cc(NCCO)nc2ccccc12 | > 300 µM | > 300 µM | > 300 µM
42 | CN(C(=O)CN)c1ccc(-c2ccccc2)cc1 | > 300 µM | > 300 µM | > 300 µM
43 | OC1(Cn2ccnn2)CCCNC1 (stereo not given) | > 300 µM | > 300 µM | > 300 µM
44 | O=C1NC(Cc2ccccc2)C(=O)Nc2ccccc21 (stereo not given) | > 300 µM | > 300 µM | > 300 µM

Row | SMILES | MIC (Acinetobacter baumannii) | MIC (Pseudomonas aeruginosa [1]) | MIC (Pseudomonas aeruginosa [2])
45 | Cc1ccc(OC(C)CN)cc1 (stereo not given) | > 300 µM | > 300 µM | > 300 µM
46 | CS(=O)(=O)CCNc1ccnc2ccc(Br)cc12 | > 300 µM | > 300 µM | > 300 µM
47 | CN(C)c1nc(Cl)c(CN)s1 | > 300 µM | 200 µM (≈ 38.3 µg/mL) | 200 µM (≈ 38.3 µg/mL)
48 | Cc1c[nH]c2ccccc2c1=N | > 300 µM | > 300 µM | > 300 µM
49 | CC(N)c1nc(-c2ccc(Br)cc2)c[nH]1 (stereo not given) | > 300 µM | > 300 µM | > 300 µM
50 | NC(=O)C1CCN(Cc2ccc(Br)c3cccnc23)C1 (stereo not given) | > 300 µM | > 300 µM | > 300 µM
51 | COc1ccc(F)c(N2CCNCC2)c1 | > 300 µM | > 300 µM | > 300 µM
52 | CCC1Oc2c(Cl)cccc2NC1=O (stereo not given) | > 300 µM | > 300 µM | > 300 µM
53 | CCOc1nnc(CN2CCC(C(N)=O)CC2)s1 | > 300 µM | > 300 µM | > 300 µM
54 | O=C(CSc1ncn[nH]1)Nc1ncc(Br)s1 | > 300 µM | > 300 µM | > 300 µM
55 | CC(C)(N)C(O)c1ccc(Br)cc1 (stereo not given) | > 300 µM | > 300 µM | > 300 µM
56 | COC(CN)CC(C)C (stereo not given) | > 300 µM | > 300 µM | > 300 µM
57 | CC(O)CN1C(=O)C=CC1=O (stereo not given) | > 300 µM | > 300 µM | > 300 µM
58 | NCc1cnn(-c2ccc(Br)cc2)c1 | > 300 µM | > 300 µM | > 300 µM
59 | COc1ncccc1-c1csc(NCCSC)n1 | > 300 µM | > 300 µM | > 300 µM
60 | c1ccc2c(N3CCNCC3)cncc2c1 | > 300 µM | > 300 µM | > 300 µM
61 | CNCCC1CCN(c2ccncc2)CC1 | > 300 µM | > 300 µM | > 300 µM
62 | COc1cccc2c(N)c(C)cnc12 | > 300 µM | > 300 µM | > 300 µM
63 | Cn1cc(NC(=O)c2ccc(Br)s2)cc1C(N)=O | > 300 µM | > 300 µM | > 300 µM
64 | CC(CSc1n[nH]c(-c2ccccn2)n1)CS(C)(=O)=O (stereo not given) | > 300 µM | > 300 µM | > 300 µM
65 | O=C1c2ccccc2OCC1CN1CCOCC1 (stereo not given) | > 300 µM | > 300 µM | > 300 µM
